In PMC6934184, “Selective DNA-PKcs inhibition extends the therapeutic index of localized radiotherapy and chemotherapy” (The Journal of Clinical Investigation, 2019):

Biological target: T1, CLK1 (Homo sapiens, UniProt P49759)
T1 construct: purchased Thermo Fisher Scientific (Life Technologies) SelectScreen
Assay: SelectScreen Z'LYTE
Format: biochemical
Method in brief: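 Percent values come from Thermo SelectScreen profiling of NU5455, combining activity and binding assays. CSF1R was run in Z'LYTE format at Km app ATP, and CAMK1 in Adapta format with ATP listed at 10.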

T1 sequence (P49759 whole entry): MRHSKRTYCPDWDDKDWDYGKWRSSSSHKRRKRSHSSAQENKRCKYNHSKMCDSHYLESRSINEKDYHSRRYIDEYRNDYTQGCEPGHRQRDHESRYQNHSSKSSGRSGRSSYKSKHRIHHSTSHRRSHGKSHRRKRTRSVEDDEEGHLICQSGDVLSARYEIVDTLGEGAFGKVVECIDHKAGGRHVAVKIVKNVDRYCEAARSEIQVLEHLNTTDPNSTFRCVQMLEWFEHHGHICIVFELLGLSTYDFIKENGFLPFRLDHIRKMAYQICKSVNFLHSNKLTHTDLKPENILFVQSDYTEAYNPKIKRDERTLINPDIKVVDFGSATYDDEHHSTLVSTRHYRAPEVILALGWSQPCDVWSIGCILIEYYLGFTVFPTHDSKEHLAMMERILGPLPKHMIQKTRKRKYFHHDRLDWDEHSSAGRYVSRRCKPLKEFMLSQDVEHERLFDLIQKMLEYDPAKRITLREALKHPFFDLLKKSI

## CN(C(=O)CN1CCOCC1)c1ccc2sc3c(-c4cccc5c(=O)cc(N6CC7CCC(C6)O7)oc45)cccc3c2c1 [NU5455]
  inhibition at 1 µM: 11.7%
